Measurements published in the supplement of paper PMC11451515.

System: SEM cells
Assay: cell viability relative to DMSO control; higher = less cytotoxic
Settings: 48 h
Procedure, shortened: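 Library compounds in DMSO were pin-dosed in an 11-point threefold series (47 μM to 0.79 nM) onto leukemia cells in 1536-well plates (5 μl). Plates held 500 cells/well of NOMO1 or SEM or 1000 cells/well of P12-Ichikawa, each adapted for at least four passages in each medium. Luminescence was read with CellTiter-Glo One after 48 h at 37°C. Viability means the per-plate percentage relative to DMSO wells, using cell-free wells as background.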

[1] = HPLM + 10% dialyzed FBS, 0.000781 µM
[2] = HPLM + 10% dialyzed FBS, 0.00234 µM
[3] = HPLM + 10% dialyzed FBS, 0.00702 µM
[4] = HPLM + 10% dialyzed FBS, 0.0211 µM
[5] = HPLM + 10% dialyzed FBS, 0.0632 µM
[6] = HPLM + 10% dialyzed FBS, 0.19 µM
[7] = HPLM + 10% dialyzed FBS, 0.569 µM
[8] = HPLM + 10% dialyzed FBS, 1.71 µM
[9] = HPLM + 10% dialyzed FBS, 5.12 µM
[10] = HPLM + 10% dialyzed FBS, 15.4 µM
[11] = HPLM + 10% dialyzed FBS, 46.1 µM
[12] = RPMI 5 mM glucose + 10% FBS, 0.000781 µM
[13] = RPMI 5 mM glucose + 10% FBS, 0.00234 µM
[14] = RPMI 5 mM glucose + 10% FBS, 0.00702 µM
[15] = RPMI 5 mM glucose + 10% FBS, 0.0211 µM
[16] = RPMI 5 mM glucose + 10% FBS, 0.0632 µM
[17] = RPMI 5 mM glucose + 10% FBS, 0.19 µM
[18] = RPMI 5 mM glucose + 10% FBS, 0.569 µM
[19] = RPMI 5 mM glucose + 10% FBS, 1.71 µM
[20] = RPMI 5 mM glucose + 10% FBS, 5.12 µM
[21] = RPMI 5 mM glucose + 10% FBS, 15.4 µM
[22] = RPMI 5 mM glucose + 10% FBS, 46.1 µM
[23] = RPMI 5 mM glucose + 10% dialyzed FBS, 0.000781 µM
[24] = RPMI 5 mM glucose + 10% dialyzed FBS, 0.00234 µM
[25] = RPMI 5 mM glucose + 10% dialyzed FBS, 0.00702 µM
[26] = RPMI 5 mM glucose + 10% dialyzed FBS, 0.0211 µM
[27] = RPMI 5 mM glucose + 10% dialyzed FBS, 0.0632 µM
[28] = RPMI 5 mM glucose + 10% dialyzed FBS, 0.19 µM
[29] = RPMI 5 mM glucose + 10% dialyzed FBS, 0.569 µM
[30] = RPMI 5 mM glucose + 10% dialyzed FBS, 1.71 µM
[31] = RPMI 5 mM glucose + 10% dialyzed FBS, 5.12 µM
[32] = RPMI 5 mM glucose + 10% dialyzed FBS, 15.4 µM
[33] = RPMI 5 mM glucose + 10% dialyzed FBS, 46.1 µM

SMILES | cell viability [1] [%] | cell viability [2] [%] | cell viability [3] [%] | cell viability [4] [%] | cell viability [5] [%] | cell viability [6] [%] | cell viability [7] [%] | cell viability [8] [%] | cell viability [9] [%] | cell viability [10] [%] | cell viability [11] [%] | cell viability [12] [%] | cell viability [13] [%] | cell viability [14] [%] | cell viability [15] [%] | cell viability [16] [%] | cell viability [17] [%] | cell viability [18] [%] | cell viability [19] [%] | cell viability [20] [%] | cell viability [21] [%] | cell viability [22] [%] | cell viability [23] [%] | cell viability [24] [%] | cell viability [25] [%] | cell viability [26] [%] | cell viability [27] [%] | cell viability [28] [%] | cell viability [29] [%] | cell viability [30] [%] | cell viability [31] [%] | cell viability [32] [%] | cell viability [33] [%]
O=C(Nc1cccc2c(=O)cc(-c3nnn[nH]3)oc12)c1ccc(OCCCCc2ccccc2)cc1 | 68.3 | 78.5 | 85.2 | 91.3 | 84.6 | 91.2 | 93 | 96 | 93.8 | 21.4 | 49.2 | 76.6 | 97.5 | 87 | 86.6 | 92.1 | 90.7 | 91.9 | 86.6 | 88.4 | 17.2 | 13.5 | 70.8 | 90.5 | 105 | 96.2 | 99.6 | 92.6 | 102 | 79.9 | 92.8 | 19.2 | 33.2
Clc1ccc(C(Cn2ccnc2)OCc2ccsc2Cl)c(Cl)c1 (stereo not given) | 67.6 | 98.8 | 107 | 93.1 | 114 | 110 | 90.4 | 111 | 111 | 114 | 35.7 | 76.4 | 95.1 | 114 | 105 | 132 | 121 | 100 | 122 | 110 | 112 | 65.6 | 69.3 | 110 | 110 | 117 | 128 | 124 | 101 | 109 | 118 | 105 | 55.9
CN1C(=O)\C(=C/C2=C1N=C(NC3CCOCC3)N=C2)OC4=C(F)C=C(F)C=C4 | 99.6 | 97.4 | 98.4 | 102 | 99.1 | 90.3 | 93.3 | 92 | 78.9 | 92.7 | 45.6 | 112 | 100 | 125 | 112 | 105 | 112 | 121 | 105 | 97.1 | 115 | 45.6 | 93.3 | 106 | 94.8 | 68.2 | 93.8 | 96.9 | 95.9 | 92 | 96.2 | 88.3 | 42.9
COC1=CC2=C(C=C1CC3=C(F)C(=CC=C3)Cl)C(=O)\C(=C/N2[C@H](CO)C(C)C)C(O)=O | 120 | 120 | 119 | 26.7 | 115 | 133 | 113 | 106 | 117 | 93.7 | 23.7 |  |  |  |  |  |  |  |  |  |  |  |  |  |  |  |  |  |  |  |  |  | 
CCc1nc(C(N)=O)c(Nc2ccc(N3CCC(N4CCN(C)CC4)CC3)c(OC)c2)nc1NC1CCOCC1 | 92.9 | 105 | 120 | 104 | 95.5 | 65 | 42.9 | 36.3 | 21.1 | 17.8 | 14.6 |  |  |  |  |  |  |  |  |  |  |  | 115 | 97.9 | 138 | 139 | 94 | 69.6 | 43 | 33.1 | 17 | 18.3 | 12.2
CC(C)(OCc1nn(Cc2ccccc2)c2ccccc12)C(=O)O | 100 | 101 | 95.4 | 103 | 116 | 97.4 | 108 | 100 | 97.5 | 109 | 92.6 | 99.4 | 95.2 | 116 | 101 | 109 | 93.9 | 94 | 112 | 109 | 96 | 96.5 | 94.7 | 103 | 107 | 104 | 97.1 | 102 | 115 | 100 | 104 | 103 | 96.4
CN1CCN(c2cc(C(=O)Nc3ccc4c(c3)-c3c(c(C(N)=O)nn3-c3ccc(F)cc3)CC4)c(Cl)cn2)CC1 | 93.3 | 95.7 | 103 | 109 | 116 | 110 | 105 | 103 | 110 | 81.8 | 4.03 |  |  |  |  |  |  |  |  |  |  |  | 125 | 109 | 121 | 131 | 138 | 120 | 103 | 104 | 109 | 106 | 3.39
O=C(O)CCc1ccc(NCc2cccc(Oc3ccccc3)c2)cc1 | 62.4 | 93.7 | 114 | 103 | 112 | 108 | 98.7 | 122 | 121 | 109 | 123 | 74.2 | 106 | 108 | 90.6 | 124 | 105 | 99.3 | 118 | 110 | 120 | 95.2 | 71.6 | 106 | 126 | 116 | 109 | 112 | 121 | 115 | 127 | 131 | 128
